Reference: patent US8476449B2, “Radioactive iodine labeled organic compound or salt thereof” (Nihon Medi-Physics Co., Ltd., priority 2010, dated 2013)
Read-outs that look alike come from different tables or passages of the source.

What was measured:
[1] = biological target: T1, Aβ42 aggregate (Homo sapiens, UniProt P05067); experiment: Evaluation experiment of binding to amyloid β (filter radioactivity); conditions: Aβ42 aggregate 30 nmol/L, incubation 3 hours
T1 construct: Aβ (1-42) peptide; purchased Peptide Institute, Inc
T1 sequence (P05067 672-713 limits assumed): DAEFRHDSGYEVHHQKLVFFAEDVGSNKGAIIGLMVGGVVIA
Procedure: 0.5 mg of Aβ (1-42) peptide (purchased from Peptide Institute, Inc.) was dissolved in 2 mL of a PBS buffer containing 1 mmol/L of EDTA and incubated at 37° C. for 42 hours, thus preparing an Aβ42 aggregate. A glass tube was charged with a 10 vol % ethanol aqueous solution (900 μL), Aβ42 aggregate (50 μL, final concentration 30 nmol/L), and radioactive iodine-labeled compound 1, radioactive iodine-labeled compound 2, or radioactive iodine-labeled compound 3 (each 50 μL, 0.018-0.097 μCi), and incubation was carried out for 3 hours. B/F separation was carried out using a cell harvester (Brandel, M-24), and the radioactivity on the filter was measured in a γ counter. The proportion (%) of the radioactivity count on the filter relative to the radioactivity count of each sample used was determined, and binding of each compound to the Aβ42 aggregate was evaluated.
As a control, 4-dimethylamino-4′-iodochalcone (hereinafter, called a chalcone derivative) was prepared in accordance with a method described in the literature (Ono et al., Bioorg Med Chem, 15, 6802-6809, 2007), and the same experiment was carried out (radioactivity count in sample: […]-0.37 kBq (0.023-0.01 μCi)).

[2] = biological target: tau protein aggregate (Homo sapiens, UniProt P10636); conditions: tau 0.37 μmol/L, incubated 1 to 1.5 hours, PD-10 column
Chain of tau protein aggregate (P10636 1-441 isoform P10636-8): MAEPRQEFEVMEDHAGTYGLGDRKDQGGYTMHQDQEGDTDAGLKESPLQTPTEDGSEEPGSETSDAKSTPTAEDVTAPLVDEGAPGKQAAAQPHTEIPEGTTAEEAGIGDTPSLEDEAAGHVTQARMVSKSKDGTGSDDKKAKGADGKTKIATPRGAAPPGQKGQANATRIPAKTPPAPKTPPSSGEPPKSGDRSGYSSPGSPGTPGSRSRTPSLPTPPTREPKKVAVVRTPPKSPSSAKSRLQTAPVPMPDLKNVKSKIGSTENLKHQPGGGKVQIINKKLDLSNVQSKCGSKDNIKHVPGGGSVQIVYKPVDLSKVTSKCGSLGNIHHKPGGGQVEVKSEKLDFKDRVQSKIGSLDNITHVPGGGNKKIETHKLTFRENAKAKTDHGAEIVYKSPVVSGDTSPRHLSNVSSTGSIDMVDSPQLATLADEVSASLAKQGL
Procedure: Mixed solutions of a tau protein aggregate (final concentration 0.37 μmol/L, prepared in Example 9) or an non-aggregated tau protein (final concentration 0.37 μmol/L) and radioactive iodine-labeled compound 1 (2.0 kBq (0.055 μCi)), radioactive iodine-labeled compound 2 (20 kBq (0.55 μCi)) or radioactive iodine-labeled form 3 (2.0 kBq (0.055 μCi)) were incubated for 1 hour to 1.5 hours, and then subjected to size exclusion chromatography (PD-10 column (GE Healthcare Japan), eluent: phosphate buffered-saline (PBS)). Subsequently, the radioactivity of an eluted fraction of the tau protein aggregate or the non-aggregated tau protein was measured in a γ counter.

[3] = tested on: phosphorylated tau protein; experiment: In vitro autoradiography using Alzheimer's disease patient-derived brain slice; type: binding, human; conditions: hippocampus slice of Alzheimer's disease patient, 3.07 kBq/mL, 1 hour
Procedure: A postmortem brain slice (paraffin-embedded slice) of the hippocampus of an Alzheimer's disease patient was purchased from BioChain. The brain slice was deparaffinized, a 10% ethanol-containing PBS solution (3.07 kBq/mL (0.083 μCi/mL)) of radioactive iodine-labeled compound 3 was added thereto, and a reaction was carried out for 1 hour. Subsequently, the sample was washed in sequence with a saturated lithium carbonate 50 vol % ethanol aqueous solution (2 minutes×2), a 50 volt ethanol aqueous solution (2 minutes×2), and purified water (30 seconds×2). The sample was exposed to light on an imaging plate for 48 hours, and analyzed using a bioimaging analyzer (model: BAS-5000, Fuji Photo Film Co., Ltd.). Furthermore, an adjacent slice was stained by an anti-phosphorylated tau protein antibody (AT8, Thermo).

[4] = mice
Procedure: Mice were decapitated after 2, 10, 30, and 60 minutes, and then each organ was then removed after blood collection, and radiation counts were measured in a γ counter.

[5] = 2 minutes after tail vein administration
[6] = 10 minutes after tail vein administration
[7] = 30 minutes after tail vein administration
[8] = 60 minutes after tail vein administration

For `O=C1/C(=C/c2ccc(-c3cccc([125I])c3)o2)NC(=S)N1CCc1c[nH]cn1` [Radioactive iodine-labeled compound 3, (Z)-3-(2-(1H-Imidazol-4-yl)ethyl)-5-((5-(3-(^125I)iodophenyl)furan-2-yl)methylene)-2-thioxoimidazolidin-4-one], the “Binding to the Aβ42 aggregate (proportion of radioactivity count on the filter)” value [1] was “significantly lower”, the “Radioactivity of eluted fraction: aggregated tau vs non aggregated tau vs buffer” value [2] was “specifically binding to a tau protein aggregate” and the “Radioactivity distribution on brain slice vs anti-phosphorylated tau antibody (AT8) staining” value [3] was “coincided with the distribution (FIG. 10b) of the phosphorylated tau protein”. The “Amount of radioactivity in organ: Blood” value [4, 5] was 8.16 ± 1.21 % ID/g, the “Amount of radioactivity in organ: Blood” value [4, 6] was 2.77 ± 0.21 % ID/g and the “Amount of radioactivity in organ: Blood” value [4, 7] was 2.11 ± 0.28 % ID/g. For the same compound, the “Amount of radioactivity in organ: Blood” value [4, 8] was 1.48 ± 0.27 % ID/g, the “Amount of radioactivity in organ: Brain” value [4, 5] was 1.54 ± 0.10 % ID/g and the “Amount of radioactivity in organ: Brain” value [4, 6] was 1.30 ± 0.12 % ID/g. The “Amount of radioactivity in organ: Brain” value [4, 7] was 0.66 ± 0.08 % ID/g, the “Amount of radioactivity in organ: Brain” value [4, 8] was 0.25 ± 0.02 % ID/g and the “Amount of radioactivity in organ: Heart” value [4, 5] was 8.48 ± 0.97 % ID/g. For the same compound, the “Amount of radioactivity in organ: Heart” value [4, 6] was 2.78 ± 0.19 % ID/g, the “Amount of radioactivity in organ: Heart” value [4, 7] was 1.73 ± 0.18 % ID/g and the “Amount of radioactivity in organ: Heart” value [4, 8] was 1.30 ± 0.37 % ID/g. For the same compound, the “Amount of radioactivity in organ: Intestine” value (from here on “Amount … Intestine”) [4, 5] was 2.55 ± 0.16 % ID/g, the “Amount … Intestine” value [4, 6] was 7.41 ± 1.21 % ID/g and the “Amount … Intestine” value [4, 7] was 17.3 ± 1.67 % ID/g. The “Amount … Intestine” value [4, 8] was 23.6 ± 2.39 % ID/g, the “Amount of radioactivity in organ: Kidney” value [4, 5] was 12.5 ± 0.76 % ID/g and the “Amount of radioactivity in organ: Kidney” value [4, 6] was 7.34 ± 0.70 % ID/g. The “Amount of radioactivity in organ: Kidney” value [4, 7] was 4.97 ± 0.71 % ID/g, the “Amount of radioactivity in organ: Kidney” value [4, 8] was 3.37 ± 0.30 % ID/g and the “Amount of radioactivity in organ: Liver” value [4, 5] was 35.0 ± 2.27 % ID/g. For the same compound, the “Amount of radioactivity in organ: Liver” value [4, 6] was 33.3 ± 1.41 % ID/g, the “Amount of radioactivity in organ: Liver” value [4, 7] was 27.2 ± 2.05 % ID/g and the “Amount of radioactivity in organ: Liver” value [4, 8] was 22.8 ± 2.13 % ID/g. For the same compound, the “Amount of radioactivity in organ: Lung” value [4, 5] was 11.4 ± 1.55 % ID/g, the “Amount of radioactivity in organ: Lung” value [4, 6] was 4.39 ± 0.42 % ID/g and the “Amount of radioactivity in organ: Lung” value [4, 7] was 3.00 ± 0.27 % ID/g. The “Amount of radioactivity in organ: Lung” value [4, 8] was 2.03 ± 0.14 % ID/g, the “Amount of radioactivity in organ: Pancreas” value (shortened to “Amount … Pancreas”) [4, 5] was 3.30 ± 0.86 % ID/g and the “Amount … Pancreas” value [4, 6] was 2.15 ± 0.23 % ID/g. The “Amount … Pancreas” value [4, 7] was 1.15 ± 0.18 % ID/g, the “Amount … Pancreas” value [4, 8] was 0.86 ± 0.08 % ID/g and the “Amount of radioactivity in organ: Spleen” value [4, 5] was 9.23 ± 0.63 % ID/g. The “Amount of radioactivity in organ: Spleen” value [4, 6] was 10.9 ± 2.78 % ID/g, the “Amount of radioactivity in organ: Spleen” value [4, 7] was 8.51 ± 2.68 % ID/g and the “Amount of radioactivity in organ: Spleen” value [4, 8] was 8.46 ± 2.57 % ID/g. For the same compound, the “Amount of radioactivity in organ: Stomach” value (shortened to “Amount … Stomach”) [4, 5] was 1.33 ± 0.25 % ID/g, the “Amount … Stomach” value [4, 6] was 2.67 ± 1.59 % ID/g and the “Amount … Stomach” value [4, 7] was 4.55 ± 1.28 % ID/g. For the same compound, the “Amount … Stomach” value [4, 8] was 7.45 ± 5.07 % ID/g.
